Measured values taken from article PMC4890880 (ACS infectious diseases, 2016).
Where a name gives a salt, the structure may show the parent alone. Read-outs that look alike come from different tables or passages of the source.

Columns and labels:
[1] = test system: P. falciparum 3D7 parasites; test: Asexual erythrocytic-stage SYBR Green I proliferation assay, 1536-well; type: cell-based, Plasmodium falciparum
[2] = test system: Plasmodium berghei (Pb-Luc) exoerythrocytic-stage parasites; settings: read-out: P. berghei (liver) IC50; Table S1, validation set of 50 antimalarials; Pb-Luc
[3] = test system: Plasmodium berghei (Pb-Luc) exoerythrocytic-stage parasites; test: microbe, parasite or virus in culture; settings: for inhibition at 10 µM: read-out: PbLuc max inhibition (%) @ 10 uM
HepG2-A16-CD81EGFP cells [4] = test system: HepG2-A16-CD81EGFP cells
HepG2-A16-CD81EGFP cells [5] = test: cells; settings: Homo sapiens, HepG2, read-out: % inhibition
HepG2-A16-CD81EGFP cells [6] = test: cells; settings: Homo sapiens, HepG2, read-out: % inhibition; remark: listed apart in the source
HepG2-A16-CD81EGFP cells [7] = test: cells; settings: Homo sapiens; for IC50: HepG2, read-out: Tox IC50; for inhibition at 50 µM: HepG2, read-out: Tox max inhibition (%) @ 50 uM; for inhibition at 10 µM: HepG2, read-out: Tox max inhibition (%) @ 10 uM
[8] = test system: Plasmodium cynomolgi exoerythrocytic-stage small (hypnozoites) and large (liver stage schizonts) parasites; test: P. cynomolgi liver assay in primary hepatocytes; settings: Plasmodium cynomolgi, Hepatocyte
[9] = biological target: QuantiLum Recombinant Luciferase (Photinus pyralis, UniProt P08659); test: Bioluminescence quantification of compound luciferase inhibition; settings: for Emax: read-out: LucInhib max inhibition
Chain of QuantiLum Recombinant Luciferase (P08659 whole entry): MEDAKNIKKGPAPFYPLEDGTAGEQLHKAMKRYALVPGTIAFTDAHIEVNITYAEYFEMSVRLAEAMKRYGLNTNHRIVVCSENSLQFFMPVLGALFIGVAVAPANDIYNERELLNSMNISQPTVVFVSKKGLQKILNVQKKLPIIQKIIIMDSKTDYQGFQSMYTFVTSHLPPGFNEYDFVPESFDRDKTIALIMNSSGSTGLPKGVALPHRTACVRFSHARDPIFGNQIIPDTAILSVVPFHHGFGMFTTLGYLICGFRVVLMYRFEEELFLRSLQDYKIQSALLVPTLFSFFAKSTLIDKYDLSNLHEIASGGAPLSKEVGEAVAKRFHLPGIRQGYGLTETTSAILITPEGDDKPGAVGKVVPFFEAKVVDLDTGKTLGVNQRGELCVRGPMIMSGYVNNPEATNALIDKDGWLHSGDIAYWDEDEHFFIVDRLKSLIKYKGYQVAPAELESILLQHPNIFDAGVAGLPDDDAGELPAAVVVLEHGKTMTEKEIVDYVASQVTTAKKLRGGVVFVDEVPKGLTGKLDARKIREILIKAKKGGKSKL

[10] = read-out: P. falciparum (blood) IC50, Table S1, validation set of 50 antimalarials
[11] = Plasmodium falciparum, 3D7, read-out: P. falciparum (blood) IC50, Table S1, validation set of 50 antimalarials
[12] = read-out: Inhibition% @ 50 uM rep1
[13] = read-out: Inhibition% @ 50 uM rep2
[14] = HepG2, read-out: HepG2 Tox% @ 50 uM rep1
[15] = read-out: PbLuc IC50, dose response, 1/3 dilutions, max conc. 10 or 50 uM, unit inferred
[16] = read-out: PbLuc max inhibition (%) @ 50 uM
[17] = read-out: % inhibition normalized to untreated control, Large
[18] = read-out: % inhibition normalized to untreated control, Small
[19] = HepG2, read-out: HepG2 Tox% @ 50 uM rep2

Compound	IC50 [1, 10]	IC50 [2]	inhibition at 50 µM (HepG2-A16-CD81EGFP cells [5])	inhibition at 50 µM (HepG2-A16-CD81EGFP cells [6])	inhibition at 50 µM [3, 12]	inhibition at 50 µM [3, 13]	also measured
CC(C)(C)NCc1cc(Nc2ccnc3cc(Cl)ccc23)c2c(c1O)CCCC2 [Naphthoquine, reference compound]	0.0114 µM	0.391 µM					
CCc1nc(N)nc(N)c1OCCCOc1ccccc1CCC(=O)O [P218.HCl, reference compound]	0.0004 µM	0.000916 µM					
Cc1cc(NS(=O)(=O)c2ccc(N)cc2)no1 [Sulfamethoxazole]							IC50 [1, 11]: > 10 µM
C[C@H]1[C@@H](O)O[C@@H]2O[C@@]3(C)CC[C@H]4[C@H](C)CC[C@@H]1[C@@]24OO3 [Artenimol, reference compound]							IC50 [1, 11]: < 0.0004 µM; IC50 ([3]; read-out: P. berghei (liver) IC50, Table S1, validation set of 50 antimalarials, Pb-Luc): 1.56 µM
CN(C)CCCNc1c2ccccc2nc2ccccc12 [MMV000448]			96.8%	99.5%	103%	106%	HepG2 Tox% @ 50 uM rep2 (HepG2-A16-CD81EGFP cells [4]; human, 50 uM): 100%
O=C(Nc1ccc(-c2nc3cc(NC(=O)c4ccc(Cl)cc4)ccc3[nH]2)cc1)c1ccc(Cl)cc1 [MMV006962]					103%	103%	cytotoxicity at 50 µM (HepG2-A16-CD81EGFP cells [7]; [14]): 96%; IC50 (HepG2-A16-CD81EGFP cells [7]): 9.2 µM; inhibition at 50 µM (HepG2-A16-CD81EGFP cells [7]): 99%; IC50 [3, 15]: 0.501 µM; inhibition at 50 µM [3, 16]: 99%; inhibition at 0.1 µM [8, 17]: 34%; inhibition at 1 µM [8, 17]: 25%; inhibition at 10 µM [8, 17]: 10%; inhibition at 0.1 µM [8, 18]: -8%; inhibition at 1 µM [8, 18]: 11%; inhibition at 10 µM [8, 18]: 17%
O=C(Nc1ccccc1O)c1ccc(-c2ccc(Cl)cc2Cl)o1 [MMV665948]			15.3%	-7.03%	8%	-61%	HepG2 Tox% @ 50 uM rep1 (HepG2-A16-CD81EGFP cells [4]; human, 50 uM): 15%
CCCCC[C@H]1CN[C@H](C(=O)N[C@H]([C@H]2O[C@H](SC)[C@H](O)[C@@H](O)[C@H]2O)[C@@H](C)Cl)C1 (relative stereo) [Cis-Mirincamycin, reference compound]	7.56 µM	> 12.5 µM					
O=C(Nc1cccc(C(F)(F)F)c1)c1cc(Cl)ccc1O [MMV665807]					103%	103%	cytotoxicity at 50 µM (HepG2-A16-CD81EGFP cells [7]; [14]): 98%; cytotoxicity at 50 µM (HepG2-A16-CD81EGFP cells [7]; [19]): 99%; IC50 (HepG2-A16-CD81EGFP cells [7]): 0.91 µM; inhibition at 50 µM (HepG2-A16-CD81EGFP cells [7]): 94%; IC50 [3, 15]: 0.21 µM; inhibition at 50 µM [3, 16]: 101%; inhibition at 0.1 µM [8, 17]: 6%; inhibition at 1 µM [8, 17]: 10%; inhibition at 10 µM [8, 17]: 12%; inhibition at 0.1 µM [8, 18]: 17%; inhibition at 1 µM [8, 18]: 34%; inhibition at 10 µM [8, 18]: 24%
C[C@]12CC[C@H](OS(=O)(=O)O)CC1=CC[C@@H]1[C@@H]2CC[C@]2(C)C(=O)CC[C@@H]12 [Dehydroepiandrosterone sulphate, reference compound]	> 62.5 µM	> 12.5 µM					
CCCc1cc(O)c2c3c(c(=O)oc2c1)CN(C)CC3 [MMV665841]			10.6%	26.3%	83%	44%	HepG2 Tox% @ 50 uM rep1 (HepG2-A16-CD81EGFP cells [4]; HepG2, 50 uM, replicate 1): 11%; HepG2 Tox% @ 50 uM rep2 (HepG2-A16-CD81EGFP cells [4]; HepG2, 50 uM, replicate 2): 26%
CCCN(CCC)CC(O)COc1ccccc1C(=O)Nc1ccccc1 (centres unmarked) [MMV006455]			-8.15%	7.57%	84%	75%	HepG2 Tox% @ 50 uM rep1 (HepG2-A16-CD81EGFP cells [4]; human, 50 uM): -8%
CCOC(=O)C1CCN(C(=O)CN2C(=O)c3ccccc3C2c2c[nH]c3ccccc23)CC1 (centres unmarked) [MMV011576]			-18.5%	-12.2%	41%	58%	HepG2 Tox% @ 50 uM rep1 (HepG2-A16-CD81EGFP cells [4]; human, 50 uM): -19%; HepG2 Tox% @ 50 uM rep2 (HepG2-A16-CD81EGFP cells [4]; human, 50 uM): -12%
OC(c1cc(C(F)(F)F)nc2c(C(F)(F)F)cccc12)C1CCCCN1 (racemic) [Mefloquine (Racemic), Mefloquine, reference compound]	< 0.0004 µM	3.06 µM					
CC(C)NC(=N)NC(=N)Nc1ccc(Cl)c(Cl)c1 [Chlorproguanil HCL, reference compound]	4.72 µM	0.5 µM					
CCCN(CCC)CCCNC(=O)c1cc2c(-c3ccc(OC)c(OC)c3)nn(C)c2s1 [MMV000561]			98.1%	100%	104%	106%	HepG2 Tox% @ 50 uM rep2 (HepG2-A16-CD81EGFP cells [4]; human, 50 uM): 100%
CC(=O)N[C@@H](C(=O)O)C(C)(C)S [N-acetyl-D-penicillamine, reference compound]	> 62.5 µM	> 12.5 µM					

Compound	IC50 [1, 10]	IC50 [2]	inhibition at 50 µM (HepG2-A16-CD81EGFP cells [5])	inhibition at 50 µM (HepG2-A16-CD81EGFP cells [6])	inhibition at 50 µM [3, 12]	inhibition at 50 µM [3, 13]	also measured
COc1ccc(C(=O)Nc2ccc(Cl)cc2C(=O)Nc2ccncc2)cc1 [MMV665799]			-8.2%	-10.4%	67%	39%	HepG2 Tox% @ 50 uM rep1 (HepG2-A16-CD81EGFP cells [4]; human, 50 uM): -8%; HepG2 Tox% @ 50 uM rep2 (HepG2-A16-CD81EGFP cells [4]; human, 50 uM): -10%
CCOC(=O)c1c(NC(=O)c2ccccc2)sc2c(O)c(CN(CC)CC)ccc12 [MMV665831]			26.5%	34.3%	96%	70%	HepG2 Tox% @ 50 uM rep1 (HepG2-A16-CD81EGFP cells [4]; human, 50 uM): 27%
Cc1cc(NC(=O)c2cccc(C(F)(F)F)c2)n(-c2nc(-c3ccc4c(c3)OCO4)cs2)n1 [MMV396681]			-14.6%	-14.2%	1.11%	-36%	HepG2 Tox% @ 50 uM rep1 (HepG2-A16-CD81EGFP cells [4]; human, 50 uM): -15%; HepG2 Tox% @ 50 uM rep2 (HepG2-A16-CD81EGFP cells [4]; human, 50 uM): -14%
CCN(CC)CCCNc1ccnc2cc(Cl)ccc12 [AQ-13, reference compound]	0.0087 µM	3.16 µM					
COc1cc2cc(C(=O)Nc3ccccc3)c(N)nc2cc1OC [MMV006767]			18.2%	10.2%	73%	39%	HepG2 Tox% @ 50 uM rep2 (HepG2-A16-CD81EGFP cells [4]; human, 50 uM): 10%
C[C@H]1c2cccc(O)c2C(O)=C2C(=O)[C@]3(O)C(O)=C(C(N)=O)C(=O)[C@@H](N(C)C)[C@@H]3[C@@H](O)[C@@H]21 [Doxycyclin, reference compound]	8.82 µM	11.6 µM					
Cc1cc(C)cc(Nc2cc(C)nc3nc(C(F)(F)F)nn23)c1 [MMV011259]			29.5%	54.7%	100%	99%	HepG2 Tox% @ 50 uM rep1 (HepG2-A16-CD81EGFP cells [4]; human, 50 uM): 30%
COc1ccccc1CNC(=O)CCn1c(=O)[nH]c2ccsc2c1=O [MMV019066]					94%	95%	cytotoxicity at 50 µM (HepG2-A16-CD81EGFP cells [7]; [14]): -14%; cytotoxicity at 50 µM (HepG2-A16-CD81EGFP cells [7]; [19]): -5.32%; IC50 (HepG2-A16-CD81EGFP cells [7]): > 10 µM; inhibition at 10 µM (HepG2-A16-CD81EGFP cells [7]): -2.17%; IC50 [3, 15]: 0.0561 µM; inhibition at 10 µM [3]: 104%; inhibition at 0.1 µM [8, 17]: 3%; inhibition at 1 µM [8, 17]: -2%; inhibition at 10 µM [8, 17]: 5%; inhibition at 0.1 µM [8, 18]: 10%; inhibition at 1 µM [8, 18]: 11%; inhibition at 10 µM [8, 18]: 3%; IC50 [9]: > 20 µM; Emax [9]: 21%
COc1cc(N[C@H](C)CCCN)c2nccc(C)c2c1Oc1ccc(Cl)c(Cl)c1 [NPC-1161B, reference compound]	1.32 µM	3.55 µM					
COc1ccc(-c2nonc2NC(=O)c2cccc(C)c2)cc1OC [MMV665890]			-1.53%	-2.92%	7%	13%	HepG2 Tox% @ 50 uM rep2 (HepG2-A16-CD81EGFP cells [4]; human, 50 uM): -3%
CN(C)c1ccc(-c2nc3cc(N)ccc3[nH]2)cc1 [MMV666102]			29.4%	32.6%	97%	94%	HepG2 Tox% @ 50 uM rep1 (HepG2-A16-CD81EGFP cells [4]; human, 50 uM): 29%
COc1ccc(C2=C(c3ccc(OC)cc3)C3(c4ccccc4)C(=O)C2(c2ccccc2)C2C(=O)N(c4ccc(C)cc4)C(=O)C23)cc1 (centres unmarked) [MMV666101]					96%	100%	cytotoxicity at 50 µM (HepG2-A16-CD81EGFP cells [7]; [14]): 0.41%; cytotoxicity at 50 µM (HepG2-A16-CD81EGFP cells [7]; [19]): 3.59%; IC50 (HepG2-A16-CD81EGFP cells [7]): > 10 µM; inhibition at 10 µM (HepG2-A16-CD81EGFP cells [7]): 1.34%; IC50 [3, 15]: 0.201 µM; inhibition at 10 µM [3]: 106%; inhibition at 0.1 µM [8, 17]: 7%; inhibition at 1 µM [8, 17]: 11%; inhibition at 10 µM [8, 17]: 17%; inhibition at 0.1 µM [8, 18]: 4%; inhibition at 1 µM [8, 18]: 19%; inhibition at 10 µM [8, 18]: 11%; IC50 [9]: > 20 µM; Emax [9]: 18%
CCN1CCN(c2cc(C)c3cc(NC(=O)c4ccc(OC)c(OC)c4)ccc3n2)CC1 [MMV019074]			98.4%	100%	104%	104%	HepG2 Tox% @ 50 uM rep2 (HepG2-A16-CD81EGFP cells [4]; human, 50 uM): 100%
COc1cc(Cc2cnc(N)nc2N)cc(OC)c1OC [Trimethoprim]							IC50 [1, 11]: 5.64 µM
CN1CCN(c2c3c(c(C#N)c4nc5ccccc5n24)CCC3)CC1 [MMV008127]			-6.02%	-9.23%	28%	-16%	HepG2 Tox% @ 50 uM rep2 (HepG2-A16-CD81EGFP cells [4]; human, 50 uM): -9%
Trans-Mirincamycin [reference compound]	> 10 µM	> 12.5 µM					
